Reference: patent US7803769B2 (priority 2006, dated 2010)
Bridge positions count the residues as written; N and C are the ends. Square brackets hold non-standard residues; d marks the D form. Peptide text beside a SMILES is read from it. 1Nal = N[C@@H](Cc1cccc2ccccc12)C(=O)O

Assays:
human Kv1.3 (CHO) = target: T1, human Kv1.3 (CHO) (Homo sapiens, UniProt P22001); test: cell-based
T1 construct: expressed in transfected cells

human Kv1.1 (HEK293) = target: T2, human Kv1.1 (HEK293) (Homo sapiens, UniProt Q09470); test: cell-based
T2 construct: expressed in transfected cells; host or cells: HEK293
T2 sequence (Q09470 whole entry): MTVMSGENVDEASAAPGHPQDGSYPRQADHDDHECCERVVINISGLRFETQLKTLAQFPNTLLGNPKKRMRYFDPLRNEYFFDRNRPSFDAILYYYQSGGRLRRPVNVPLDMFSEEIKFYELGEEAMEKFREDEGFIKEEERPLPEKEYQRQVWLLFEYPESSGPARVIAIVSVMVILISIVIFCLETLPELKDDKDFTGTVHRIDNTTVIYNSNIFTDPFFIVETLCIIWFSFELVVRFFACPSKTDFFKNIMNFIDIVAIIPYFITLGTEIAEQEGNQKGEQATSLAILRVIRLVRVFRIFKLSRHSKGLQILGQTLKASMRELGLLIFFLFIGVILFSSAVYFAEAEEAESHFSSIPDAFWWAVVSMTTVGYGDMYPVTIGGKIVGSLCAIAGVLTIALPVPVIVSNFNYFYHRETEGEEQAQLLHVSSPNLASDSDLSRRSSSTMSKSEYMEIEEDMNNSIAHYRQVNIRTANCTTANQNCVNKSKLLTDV

T1 sequence (P22001 whole entry): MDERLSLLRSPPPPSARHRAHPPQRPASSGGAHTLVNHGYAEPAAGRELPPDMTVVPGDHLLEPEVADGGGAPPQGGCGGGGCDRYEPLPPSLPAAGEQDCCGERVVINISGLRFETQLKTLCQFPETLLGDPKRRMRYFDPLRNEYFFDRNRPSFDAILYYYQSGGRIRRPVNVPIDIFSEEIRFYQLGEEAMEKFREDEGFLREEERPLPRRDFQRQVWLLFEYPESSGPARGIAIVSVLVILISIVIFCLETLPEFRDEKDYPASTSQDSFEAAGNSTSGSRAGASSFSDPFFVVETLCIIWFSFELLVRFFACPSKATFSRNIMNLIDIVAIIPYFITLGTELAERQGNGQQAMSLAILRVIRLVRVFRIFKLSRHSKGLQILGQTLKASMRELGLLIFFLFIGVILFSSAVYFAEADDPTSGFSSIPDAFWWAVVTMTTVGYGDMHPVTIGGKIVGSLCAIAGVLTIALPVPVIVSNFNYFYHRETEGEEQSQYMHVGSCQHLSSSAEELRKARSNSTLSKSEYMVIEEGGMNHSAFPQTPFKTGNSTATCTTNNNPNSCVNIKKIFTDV

Compound: CC[C@H](C)[C@H](NC(=O)[C@H](C)NC(=O)CN)C(=O)N[C@H](C(=O)N[C@@H](CC(N)=O)C(=O)N[C@H](C(=O)N[C@@H](CCCCN)C(=O)N[C@H]1CSSC[C@@H]2NC(=O)[C@H](CCCCN)NC(=O)CNC(=O)[C@H](Cc3ccccc3)NC(=O)[C@H](CCCNC(=N)N)NC(=O)[C@H](CCSC)NC(=O)CNC(=O)[C@H](C)NC(=O)[C@H](CCCCN)NC(=O)[C@H](CCCCN)NC(=O)[C@@H]3CSSC[C@@H](C(=O)N[C@H](C(=O)N4CCC[C@H]4C(=O)N[C@@H](CCCCN)C(=O)O)[C@@H](C)O)NC(=O)[C@H](Cc4c[nH]cn4)NC(=O)[C@H](CSSC[C@H](NC(=O)[C@H](CCC(N)=O)NC(=O)[C@H](CCCNC(=N)N)NC(=O)[C@H](CO)NC(=O)[C@H]([C@@H](C)CC)NC(=O)[C@H](CCCCN)NC1=O)C(=O)N[C@@H](CC(C)C)C(=O)N[C@@H](CCC(=O)O)C(=O)N1CCC[C@H]1C(=O)N3)NC(=O)[C@H](CCCCN)NC(=O)CNC(=O)[C@H](CC(N)=O)NC(=O)[C@H](CCSC)NC2=O)C(C)C)[C@@H](C)CC [V2A] (H-GAIINVKCKISRQCLEPCKKAGMRFGKCMNGKCHCTPK-OH; disulfide 8-28, 14-33, 18-35)
- IC50 (human Kv1.3 (CHO)): 0.0818 nM
- IC50 (human Kv1.1 (HEK293)): 0.00994 nM

Compound: CC[C@H](C)[C@@H]1NC(=O)[C@H](CCCCN)NC(=O)[C@@H](NC(=O)[C@H](CCCCN)NC(=O)[C@@H](NC(=O)[C@H](CC(N)=O)NC(=O)[C@@H](NC(=O)[C@@H](NC(=O)[C@@H](NC(=O)CN)C(C)C)[C@@H](C)CC)[C@@H](C)CC)C(C)C)CSSC[C@@H]2NC(=O)[C@H](CCCCN)NC(=O)[C@H](Cc3cccc4ccccc34)NC(=O)[C@H](Cc3ccccc3)NC(=O)[C@H](CCCNC(=N)N)NC(=O)[C@H](CCSC)NC(=O)CNC(=O)[C@H](C)NC(=O)[C@H](CCCCN)NC(=O)[C@H](CCCCN)NC(=O)[C@@H]3CSSC[C@@H](C(=O)N[C@H](C(=O)N4CCC[C@H]4C(=O)N[C@@H](CCCCN)C(=O)O)[C@@H](C)O)NC(=O)[C@H](Cc4c[nH]cn4)NC(=O)[C@H](CSSC[C@H](NC(=O)[C@H](CCC(N)=O)NC(=O)[C@H](CCCNC(=N)N)NC(=O)[C@H](CO)NC1=O)C(=O)N[C@@H](CC(C)C)C(=O)N[C@@H](CCC(=O)O)C(=O)N1CCC[C@H]1C(=O)N3)NC(=O)[C@H](CCCCN)NC(=O)CNC(=O)[C@H](CC(N)=O)NC(=O)[C@H](CCSC)NC2=O [G26Nal] (H-GVIINVKCKISRQCLEPCKKAGMRF[1Nal]KCMNGKCHCTPK-OH; disulfide 8-28, 14-33, 18-35)
- IC50 (human Kv1.3 (CHO)): > 3.33 nM
- IC50 (human Kv1.1 (HEK293)): 1.57 nM

Compound: CC[C@H](C)[C@@H]1NC(=O)[C@H](CCCCN)NC(=O)[C@@H](NC(=O)[C@H](CCCCN)NC(=O)[C@@H](NC(=O)[C@H](CC(N)=O)NC(=O)[C@@H](NC(=O)[C@@H](NC(=O)[C@@H](NC(=O)CN)C(C)C)[C@@H](C)CC)[C@@H](C)CC)C(C)C)CSSC[C@@H]2NC(=O)[C@H](CCCCN)NC(=O)CNC(=O)[C@H](Cc3ccccc3)NC(=O)[C@H](CCCNC(=N)N)NC(=O)[C@H](CCSC)NC(=O)CNC(=O)[C@H](C)NC(=O)[C@H](CCCCN)NC(=O)[C@H](CCCCN)NC(=O)[C@@H]3CSSC[C@@H](C(=O)N[C@H](C(=O)N4CCC[C@H]4C(=O)N[C@@H](CCCCN)C(=O)O)[C@@H](C)O)NC(=O)[C@H](Cc4c[nH]cn4)NC(=O)[C@H](CSSC[C@H](NC(=O)[C@H](CCC(N)=O)NC(=O)[C@H](CCCNC(=N)N)NC(=O)[C@H](CO)NC1=O)C(=O)N[C@@H](CC(C)C)C(=O)N[C@@H](CCC(=O)O)C(=O)N1CCC[C@H]1C(=O)N3)NC(=O)[C@H](CCCCN)NC(=O)CNC(=O)[C@H](CC(N)=O)NC(=O)[C@H](Cc1cccc3ccccc13)NC2=O [M29Nal] (H-GVIINVKCKISRQCLEPCKKAGMRFGKC[1Nal]NGKCHCTPK-OH; disulfide 8-28, 14-33, 18-35)
- IC50 (human Kv1.3 (CHO)): 0.0935 nM
- IC50 (human Kv1.1 (HEK293)): 0.0469 nM
